Results published in US20220331500A1, “DIALYZER” (SCHOOL JURIDICAL PERSON THE KITASATO INSTITUTE, priority 2019, published 2022).
Where two headings read alike, the source gives them in different places.

What was measured:
[1] = NO donor, NO release; cited from earlier work
[2] = system: Sprague Dawley rats; assay: Rat blood dialysis with NO gas supplied to the dialysate: 4-hour circulation achievement rate; assay type: in vivo; conditions: for 4-hour circulation achievement rate: rat blood dialysis
Protocol: An extracorporeal perfusion type polymethylpentene membrane oxygenator was used for gas exchange.
(§1) NO gas of which the concentration was adjusted to 200 ppm, 400 ppm, and 800 ppm was added to the dialysate via a gas exchanger. As a control group, nitrogen gas (N2) was added to the dialysate instead of NO gas.
(§2) FIG. 3 is a schematic diagram showing the structure of a circulation circuit in which the dialyzer is connected to a rat. […] In a case where it was possible to perform the 4-hours circulation, the residual blood in the dialyzer was evaluated.
During the experiment, there was a case where the dialyzer inlet pressure or venous pressure increased, the blood coagulation in the dialyzer or the blood coagulation in the circuit were determined, and the circulation was stopped halfway. Thus, in all groups, the number of 4-hour circulation achievements with respect to the total number of experiments was calculated as the 4-hour circulation achievement rate.
FIG. 4 is a graph showing the 4-hour circulation achievement rate. In FIG. 4, “Control” indicates the results of the control group, and “200 ppm”, “400 ppm”, and “800 ppm” indicate the results of a group in which NO gas of each concentration was supplied to the dialysate.

[3] = system: Sprague Dawley rats; assay: Methemoglobin (Met-Hb) during rat blood dialysis with NO gas; assay type: in vivo
Protocol: as §1

[4] = system: Sprague Dawley rats; assay: Residual blood LDH activity value and residual blood Hb in the dialyzer after 4 hours of circulation (NO gas); assay type: in vivo, rat; conditions: for amount of residual blood Hb: compared to control group
Protocol: as §1, §2
In FIG. 6, “Control” indicates the results of the control group, and “200 ppm”, “400 ppm”, and “800 ppm” indicate the results of a group in which NO gas of each concentration was supplied to the dialysate.

[5] = system: Sprague Dawley rats; assay: Measurement of NO concentration in blood and dialysate during rat blood dialysis (OxiSelect Nitrite/Nitrate kit); assay type: in vivo; conditions: 800 ppm NO gas; blood (out) venous side vs blood (in) arterial side of dialysis unit; 1 hour
Protocol: as §1
For a group in which 800 ppm of NO gas was supplied to the dialysate, the dialysate was supplied to the blood (in) on an arterial side of the dialysis unit, the blood (out) on a venous side of the dialysis unit, the dialysate (in) in the dialysate supply channel for supplying the dialysate to the dialysis unit, and the dialysate (out) in the dialysate discharge channel for discharging the dialysate from the dialysis unit were collected 1 hour after the start of circulation, and the NO concentration was measured using a commercially available kit (“OxiSelect In Vitro Nitric Oxide (Nitrite/Nitrate) Assay Kit (Colorimetric)” made by Cell Biolabs, Inc.). The NO concentration was measured as the sum of the concentrations of NO2^− and NO3^− after the NO was completely hydrolyzed. For this reason, hereinafter, there is a case where the total concentration of […] is referred to as the NO concentration.

[6] = system: Sprague Dawley rats
Protocol: (§3) Male Sprague Dawley rats (body weight: 300 g to 400 g) that were 8 to 12 weeks old were used. The rats were inhaled and anesthetized using isoflurane 1.5% to 3.0% as an anesthetic. Blood was removed from the carotid artery, and blood was returned into the tail vein. The blood flow rate was 0.5 mL/min to 1.0 mL/min, the dialysate flow rate was 3 mL/min, and the blood dialysis was performed for 4 hours by a parallel flow operation. Heparin was administered at 0.7 units/g at the start of dialysis.
(§4) Dialysates in which the sodium nitrite concentration was adjusted to be 40 μM, 80 μM, and 120 μM were used. As a control group, a dialysate containing no sodium nitrite was used.
(§5) During the experiment, arterial pressure, dialyzer inlet pressure, and venous pressure were measured at intervals of 15 minutes. Additionally, methemoglobin (Met-Hb) was measured at the start of the experiment and then at intervals of 60 minutes. Additionally, after the circulation was ended, the dialyzer was washed, and the amount of residual blood hemoglobin (Hb) amount and the activity value of residual blood lactate dehydrogenase (LDH) were measured.
After the end of 4 hours of circulation, the dialyzer was washed with 10 mL of Lactec Injection and then a 0.5% Triton (Registered trademark) solution was circulated for 2 hours. After that, an LDH activity value in a washing solution was measured using a commercially available kit (“Cytotoxicity Measurement KitPLUS (LDH)” made by Roche Diagnostics K.K.) and used as the residual blood LDH activity value.

[7] = system: Sprague Dawley rats; remark: listed apart in the source
Protocol: Blood dialysis of rats was performed by changing the amount of nitrite to be supplied to the dialysate, and the optimal concentration of nitrite was examined.
as §3
As the dialysis unit (dialyzer), a small rat dialyzer having a cellulose triacetate membrane, 140 hollow fibers, an effective length of 146 mm, and a membrane area of 0.014 m^2 were used.
as §4, §5
The experiment was performed with a circulation time of 4 hours. When the dialyzer inlet pressure or venous pressure exceeded 250 mmHg, the circulation was ended.

[8] = system: Sprague Dawley rats; conditions: all groups (40, 80, 120 μM sodium nitrite)
Protocol: as §3, §4, §5

[9] = extrapolated from the 200-800 ppm results
[10] = 80 μM sodium nitrite in dialysate, compared to control group
[11] = 120 μM sodium nitrite in dialysate, compared to control group

For `NCCN(CCN)/[N+]([O-])=N/O` [NOC18], the Half-life [1] is given as 1260 min.
For nitric oxide [NO gas], the “NO concentration at which the 4-hour circulation achievement rate was 100%” value [2, 9] was 5.4 µM, the “4-hour circulation achievement rate” value ([2]; 800 ppm compared with 200 ppm and 400 ppm) was “higher” and the “4-hour circulation achievement rate” value ([2]; as the concentration of NO gas supplied to the dialysate was higher (200, 400, 800 ppm)) was “increased”. The Met-Hb ([3]; 800 ppm NO gas) was ≤ 10%, the adverse event ([3]; NO gas of 200 ppm to 800 ppm supplied to the dialysate) was “no adverse event occurred” and the Met-Hb ([3]; all NO-added groups (200 ppm to 800 ppm)) was “less than 10%”. The “amount of residual blood Hb” value ([4]; 200 ppm NO gas supplied to the dialysate) was “significantly lower”, the “residual blood LDH activity value” ([4]; 200 ppm NO gas supplied to the dialysate, compared to control group (N2), after 4 hours) was “significantly lower” and the “amount of residual blood Hb” value ([4]; 400 ppm NO gas supplied to the dialysate) was “significantly lower”. For the same compound, the “residual blood LDH activity value” ([4]; 400 ppm NO gas supplied to the dialysate, compared to control group (N2), after 4 hours) was “significantly lower”, the “amount of residual blood Hb” value ([4]; 800 ppm NO gas supplied to the dialysate) was “significantly lower” and the “residual blood LDH activity value” ([4]; 800 ppm NO gas supplied to the dialysate, compared to control group (N2), after 4 hours) was “significantly lower”. The “residual blood LDH activity value” ([4]; as the NO concentration was higher (200 to 800 ppm)) was “lower value”, the “NO concentration at which the residual blood LDH activity value was 0 U/L” value [4, 9] was 6 µM and the “amount of increase in NO concentration in blood” value [5] was “about 3 μM”.
For `CC(C)N(CCCN)/[N+]([O-])=N/O` [NOC5], the Half-life [1] is listed as 25 min.
In the case of `CC/C(=C\C(CNC(=O)c1cccnc1)=N\O)C(C)[N+](=O)[O-]` (stereo not drawn) [NOR4], the Half-life [1] is listed as 60 min.
For `COCC(/C(C)=C/C(=N/O)C(N)=O)[N+](=O)[O-]` (stereo not drawn) [NOR1], the Half-life [1] is given as 1.8 min.
For `CNCCCN(C)/[N+]([O-])=N/O` [NOC7], the Half-life [1] is given as 5 min.
In the case of `CCNCCN(CC)[N+]([O-])=NO` [NOC12], the Half-life [1] is listed as 100 min.
With `O=NO` [sodium nitrite] the “residual blood LDH activity value” ([6]; 40 μM sodium nitrite in dialysate, compared to control group) was “significantly lower”, the “residual blood LDH activity value” ([6]; 80 μM and 120 μM as compared to 40 μM) was “lower value” and the “amount of residual blood Hb” value [6, 10] was “significantly lower”. For the same compound, the “residual blood LDH activity value” [6, 10] was “significantly lower”, the “amount of residual blood Hb” value [6, 11] was “significantly lower” and the “residual blood LDH activity value” [6, 11] was “significantly lower”. The “blood pressure (arterial pressure) during circulation” value (shortened to “blood pressure”) ([7]; 40 μM sodium nitrite in dialysate) was “stable for 4 hours”, the “blood pressure” value ([7]; 80 μM sodium nitrite in dialysate) was “stable for 4 hours” and the “blood pressure” value ([7]; 120 μM sodium nitrite in dialysate, vs control group) was “significantly lower”. The “blood pressure” value ([7]; 120 μM sodium nitrite in dialysate, vs control group, listed as nitrite ions) was “slight decrease”, the 4 hours circulation ([7]; sodium nitrite groups (40, 80, 120 μM) and control) was “circulate stably for 4 hours” and the Met-Hb concentration [8] was ≤ 2%.
